The values that follow come from patent publication US5013757A, “Physiologically active substance Tan-931, its derivatives, their production and use” (Takeda Chemical Industries, Ltd., priority 1988, dated 1991).

For data set [1], the target named is T1, human placenta aromatase (Homo sapiens, UniProt P11511).
T1 construct: The resulting pellet was used as a microsome fraction; from tissue; host or cells: human placenta, microsome fraction (148,000×g pellet)
T1 sequence (P11511 1-503): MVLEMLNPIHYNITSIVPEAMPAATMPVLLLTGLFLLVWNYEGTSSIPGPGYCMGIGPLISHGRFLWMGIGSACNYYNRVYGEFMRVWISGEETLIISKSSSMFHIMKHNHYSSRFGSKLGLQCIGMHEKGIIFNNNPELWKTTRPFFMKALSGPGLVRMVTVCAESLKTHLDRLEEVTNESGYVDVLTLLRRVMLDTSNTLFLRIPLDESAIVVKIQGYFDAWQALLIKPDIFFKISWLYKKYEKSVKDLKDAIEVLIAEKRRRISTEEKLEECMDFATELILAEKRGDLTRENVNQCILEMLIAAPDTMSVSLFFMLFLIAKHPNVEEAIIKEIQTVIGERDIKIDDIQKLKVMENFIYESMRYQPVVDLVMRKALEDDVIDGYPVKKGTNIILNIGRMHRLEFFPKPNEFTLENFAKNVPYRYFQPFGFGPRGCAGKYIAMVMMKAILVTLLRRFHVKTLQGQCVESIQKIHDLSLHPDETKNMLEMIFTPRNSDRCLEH
The data set can be described thus: In vitro human placenta microsome aromatase inhibitory activity. The class given is biochemical. The note with it: androstenedione 4 μM, 37° C., 1 hour. From the text:
(§1) The following Experiments specifically illustrate in vitro human placenta aromatase inhibitory activity and inhibition of estrogen synthesis in the rat by the compounds of the present invention.
Preparation of human placenta microsome
The method of F. A. Thompson et al. [J. Biol. Chem., 249, 5364 (1974)] was partly modified. Namely, the placenta was washed with 0.15 M KCl which was previously cooled to remove the attached membrane and large blood vessels and then sufficiently and finely cut with scissors. To the finely cut tissue was added 2 ml of cold 0.02 M phosphate buffer containing 0.25M sucrose (pH 7.4) per 1 g of the tissue and the mixture was homogenized with Polytron homogenizer (30 second×3, in ice). Then, the mixture was centrifuged at 800×g for 10 minutes and the supernatant was centrifuged at 20,000×g for 30 minutes and further at 148,000×g for 45 minutes. The resulting pellet was used as a microsome fraction. The microsome obtained was suspended in 1 ml of the above phosphate buffer per 10 g of the placenta and stored at -80° C. Upon use, it was diluted 5 to 6 times.
Determination of aromatase activity and inhibitory activity
The method of F. A. Thompson et al. [see above] was partly modified as follows.
A reaction mixture (225 μl ) containing 4-androstene-3,17-dione (4 μM ), 1,2 [^3 H]-androstenedione (140,000 dpm), NADPH (550 μM ) and the above microsome (20 μl ) and a solution containing an inhibitor or not (5 μl ) was incubated at 37° C. for 1 hour. According to this determination, [^3 H]-H2 O was formed by aromatization of androstenedione. Then, the reaction mixture was extracted with chloroform (0.5 ml) to separate layers and the aqueous layer obtained was treated with 5% activated carbon (0.25 ml) to remove the free steroid. After high-speed centrifugation, to the supernatant (0.2 ml) was added scintillator (3 ml) and radioactivity was determined with a liquid scintillation counter. By comparing the result obtained by addition of an inhibitor with that of a control sample wherein the reaction was carried out without addition of any inhibitor, an inhibitory rate (%) was calculated. The effectiveness was expressed by the concentration which was required for inhibiting 50% of the enzyme activity at the substrate (androstenedione) concentration of 4 μM

Data set [2] deals with estrogen synthesis in rat. The data set is described as follows: In vivo inhibition of estrogen synthesis in PMSG-stimulated young female rats. Set-up: species or system SD rats (female, 19 days old). The protocol: as §1
In vivo inhibition of estrogen synthesis by the compound 1 (TAN-931) was studied by the following experiment.
Five young SD rats (female, 19 days old) were used per one group. The rats of test groups were administered the compound suspended in 0.2% gum arabic-physiological saline solution subcutaneously at the doses of 25, 50 and 100 mg/kg for 4 days at 24-hour intervals. The rats of control groups (Control 1 and 2) were administered 0.2 ml of 0.2% gum arabic-physiological saline solution. After administration of the compound on the third day after initiation of the test, a single dose of 10 U/rat (s.c.) of pregnant mare's serum gonadotropin (PMSG) was administered to the rats of test groups and Control 2. […] After centrifugation, the plasma was obtained and the plasma estradiol-17 β level was determined by radio immunoassay. Further, the uterus and ovarium were removed from the rat, freed from connective tissue and the like and weighed, respectively. As the control compound for estimation of the pharmacological activity, 4-hydroxyandrostenedione (4-OHA) was used.

Data set [3] concerns various enzymes which pertain to biosynthesis of steroid hormones. The note with it: background statement; cited from earlier work.
Data set [4] can be described thus: Acute toxicity in mice. To be noted: mouse, in vivo, sc; subcutaneous, male mice (4 weeks old). From the text: Thus, the compounds (I-1) have a potent aromatase inhibitory activity and, therefore, they can be advantageously used for prevention and treatment of estrogen dependent diseases such as breast cancer, endometriosis, endometrium cancer, benign breast diseases, prostatomegaly and the like as well as for control of conception. Further, toxicity of the compounds (I-1) of the present invention is low.

Data set [5] can be described thus: Solubility of TAN-931. The class given is physicochemical.
Setting [6] is: 100 mg/kg/day s.c., 4 days, PMSG.
The mark [7] stands for this setting: 25 mg/kg/day s.c., 4 days, PMSG.
Setting [8] is: 50 mg/kg/day s.c., 4 days, PMSG.

As usually defined, the IC50 is the concentration that gives 50% inhibition. High values mean lower potency, low ones higher potency. `Cc1ccc(NC(=O)c2cc(O)c(C(=O)c3c(O)cccc3O)c(C=O)c2)cc1` [Compound 13] had an IC50 in data set [1] of 16.1 µM. With `C[C@]12CCC(=O)C(O)=C1CC[C@@H]1[C@@H]2CC[C@]2(C)C(=O)CC[C@@H]12` [Compound 4-OHA, 4-hydroxyandrostenedione, reference compound], in data set [2] (setting [6]), the “Plasma estradiol 17-B level” value is 149.6 ± 76.7 pg/mL, the “Tissue weight Ovarium” value is listed as 28.4 ± 7.9 mg, the “Tissue weight Uterus” value worked out at 85.9 ± 13.0 mg and the Weight gain was found to be 22.2 ± 1.5 g. The compound `COC(=O)c1cc(O)c(C(=O)c2c(O)cccc2O)c(C=O)c1` [Compound 2] had an IC50 in data set [1] of 22.1 µM. On to `COc1cc(C(=O)O)cc(C=O)c1C(=O)c1c(O)cccc1O` [Compound 15], for which the IC50 in data set [1] was 24 µM. The same measure, in the same setting: next, `CCCCCCOC(=O)c1cc(O)c(C(=O)c2c(O)cccc2O)c(C=O)c1` [Compound 5]: 32.3 µM; `C=CCNC(=O)c1cc(O)c(C(=O)c2c(O)cccc2O)c(C=O)c1` [Compound 9]: 15.2 µM; `COc1cc(C(=O)N(C)C)cc(C=O)c1C(=O)c1c(O)cccc1O` [Compound 19]: 18.3 µM.

`COCOC(=O)c1cc(O)c(C(=O)c2c(O)cccc2O)c(C=O)c1` [Compound 3] showed an IC50 in data set [1] of 12.4 µM. `O=Cc1cc(C(=O)N2CCOCC2)cc(O)c1C(=O)c1c(O)cccc1O` [Compound 11] had an IC50 in data set [1] of 16.4 µM. `CC(C)NC(=O)c1cc(O)c(C(=O)c2c(O)cccc2O)c(C=O)c1` [Compound 10] had an IC50 in data set [1] of 25.6 µM.

As to `CCC1(c2ccc(N)cc2)CCC(=O)NC1=O` (centres unmarked) [aminoglutethimide], the “inhibition of enzymes of steroid hormone biosynthesis” value in data set [3] is recorded as “inhibits various enzymes”. Consider `O=Cc1cc(C(=O)O)cc(O)c1C(=O)c1c(O)ccc(Cl)c1O` [Compound 27], for which the IC50 in data set [1] is 14.3 µM. In general, LD50 refers to the dose expected to kill half of the subjects tested. A high value points to a less toxic substance. As to `O=Cc1cc(C(=O)O)cc(O)c1C(=O)c1c(O)cccc1O` [Compound 1], the “Plasma estradiol 17-B level” value in data set [2] (setting [7]) was found to be 312.8 ± 192.4 pg/mL; in data set [2] (setting [8]) it was 80.8 ± 64.2 pg/mL; in data set [2] (setting [6]) it was 50.2 ± 23.5 pg/mL. For the same compound, the results for the “Tissue weight Ovarium” value in data set [2] (setting [7]), in data set [2] (setting [8]) and in data set [2] (setting [6]) were 24.2 ± 6.2 mg, 16.4 ± 6.4 mg and 14.5 ± 1.5 mg, respectively. In addition, the “Tissue weight Uterus” value in data set [2] (setting [7]) is 108.4 ± 15.6 mg; in data set [2] (setting [8]), 89.4 ± 30.8 mg; in data set [2] (setting [6]), 66.3 ± 38.0 mg. In addition, the “blood estrogen level raised by stimulation due to PMSG administration” value in data set [2] (result in words) was “significantly lowered”. In data set [4], this compound showed an LD50 not below 800 mg/kg. Besides, the Solubility entry in data set [5] (chloroform, diethyl ether) is given as “Slightly soluble”; in data set [5] (dimethylsulfoxide (DMSO), methanol, ethanol, acetone), “Soluble”; in data set [5] (water, n-hexane), “Insoluble”. Further, the IC50 in data set [1] was 17.2 µM.

In data set [1], `CCCCCCNC(=O)c1cc(O)c(C(=O)c2c(O)cccc2O)c(C=O)c1` [Compound 8] had an IC50 of 17.6 µM. Take `O=Cc1cc(C(=O)OCc2ccccc2)cc(O)c1C(=O)c1c(O)cccc1O` [Compound 4]: 206 µM corresponded to half-maximal inhibition in data set [1] (IC50). On the same count and under the same terms, next, `CN(C)CCNC(=O)c1cc(O)c(C(=O)c2c(O)cccc2O)c(C=O)c1` [Compound 14]: 16.9 µM. `COc1cccc(O)c1C(=O)c1c(O)cc(C(=O)O)cc1C=O` [Compound 16]: the IC50 in data set [1] was 135 µM. Still for that read-out and setting: as for `CNC(=O)c1cc(O)c(C(=O)c2c(O)cccc2O)c(C=O)c1` [Compound 6], the figure is 21.3 µM. Same read-out and setting: as for `COc1cccc(O)c1C(=O)c1c(C=O)cc(C(=O)O)cc1OC` [Compound 17], the figure is 96.6 µM; as for `O=Cc1cc(C(=O)N2CCCC2)cc(O)c1C(=O)c1c(O)cccc1O` [Compound 12], 23.4 µM; as for `CN(C)C(=O)c1cc(O)c(C(=O)c2c(O)cccc2O)c(C=O)c1` [Compound 7], 14.6 µM.
